The values below come from US12102637B2, “Pharmaceutical formulations for treating endometriosis, uterine fibroids, polycystic ovary syndrome or adenomyosis” (AbbVie Inc., priority 2017, dated 2024).

The series in a line: Drug interaction studies: co-administered drug in the presence of elagolix. Conditions: for direction of the change in AUC of concomitant drug: co-administered with ORILISSA (elagolix).
Where [1] appears, read: Midazolam 2 mg single dose, elagolix 150 mg once daily × 13 days, N 11.
Where [2] appears, read: Midazolam 2 mg single dose, elagolix 300 mg twice daily × 11 days, N 20.
Where [3] appears, read: Ethinyl estradiol 35 mcg and triphasic norgestimate 0.18/0.215/0.25 mg once daily, elagolix 150 mg once daily, N 21.
Setting [4] is: Norethindrone 0.35 mg once daily × 112 days, elagolix 150 mg once daily × 56 days, N 32.
The mark [5] stands for this setting: Digoxin 0.5 mg single dose, elagolix 200 mg twice daily × 10 days, N 11.
The mark [6] stands for this setting: Rosuvastatin 20 mg once daily, elagolix 300 mg twice daily × 7 days, N 10.

Molecules are shown by their SMILES.

Experimental: Drug interaction studies were performed with elagolix and other drugs that are likely to be co-administered and with drugs commonly used as probes for pharmacokinetic interactions.

Turning to `Cc1ncc2n1-c1ccc(Cl)cc1C(c1ccccc1F)=NC2` [Midazolam], the “direction of the change in AUC of concomitant drug” value (from here on “direction of the change”) is on record as “↓ midazolam”. Under setting [1], the “AUC Ratio (with elagolix vs medication alone)” value (from here on “AUC Ratio”) is reported as 0.65 and the “Cmax Ratio (with elagolix vs medication alone)” value (“Cmax Ratio” for short) is listed as 0.81. For the same compound, under setting [2], the “AUC Ratio” value came to 0.46 and the “Cmax Ratio” value was 0.56.

As to `C#CC1(O)CC[C@H]2[C@@H]3CCC4=CC(=O)CC[C@@H]4[C@H]3CC[C@@]21CC` (mixture of isomers) [Norgestrel], under setting [3], the “AUC Ratio” value is 0.92 and the “Cmax Ratio” value is 0.89.

Take `C#C[C@]1(O)CC[C@H]2[C@@H]3CCC4=CC(=O)CC[C@@H]4[C@H]3CC[C@@]21C` [Norethindrone]: under setting [4], the “AUC Ratio” value amounted to 0.88 and the “Cmax Ratio” value came out at 0.95.

Consider `C#C[C@]1(O)CC[C@H]2[C@@H]3CCC4=CC(=NO)CC[C@@H]4[C@H]3CC[C@@]21CC` (mixture of isomers) [Norelgestromin], for which, under setting [3], the “AUC Ratio” value is reported as 0.85 and the “Cmax Ratio” value is recorded as 0.87.

As for `C[C@H]1O[C@@H](O[C@H]2[C@@H](O)C[C@H](O[C@H]3[C@@H](O)C[C@H](O[C@H]4CC[C@@]5(C)[C@H](CC[C@@H]6[C@@H]5C[C@@H](O)[C@]5(C)[C@@H](C7=CC(=O)OC7)CC[C@]65O)C4)O[C@@H]3C)O[C@@H]2C)C[C@H](O)[C@@H]1O` [Digoxin], the “direction of the change” value was “↑ digoxin”. Under setting [5], the “AUC Ratio” value worked out at 1.26 and the “Cmax Ratio” value stood at 1.71.

With `C#C[C@]1(O)CC[C@H]2[C@@H]3CCc4cc(O)ccc4[C@H]3CC[C@@]21C` [Ethinyl Estradiol], under setting [3], the “AUC Ratio” value is recorded as 1.30 and the “Cmax Ratio” value is 1.15.

`CC(C)c1nc(N(C)S(C)(=O)=O)nc(-c2ccc(F)cc2)c1/C=C/[C@@H](O)C[C@@H](O)CC(=O)O` [Rosuvastatin]: the “direction of the change” value is given as “↓ rosuvastatin”. Moreover, under setting [6], the “AUC Ratio” value was 0.60 and the “Cmax Ratio” value is 0.99.
